Reference: US12396949B2, “Technology for improving properties of lipid nanoparticles using lipids in which cis-unsaturated bonds are substituted with a silicon atom” (The Regents of the University of California, priority 2022, dated 2025)
“And” between values parts separate entries of the source, which are not always exact repeats. Equal entries are not always repeated.

What was measured:
[1] = Average zeta potential of liposomes made from cationic silyl lipids (Tables 1A, 1B); assay type: physicochemical
Description: (§1) For colloidal dispersions, zeta potential is a useful measurement of the difference in electrokinetic potential between the dispersion medium and the stationary layer of fluid attached to the dispersed particle. The magnitude of the zeta potential indicates the degree of electrostatic repulsion between adjacent, similarly charged particles in a dispersion. A high zeta potential is an indicator of stability (resistance to aggregation). Both zeta potential and size can be determined using a zeta Potential Analyzer. Clogston J D et al., Methods Mol Biol. 2011; 697:63-70.
(§2) FIGS. 5A to 5C and TABLE 1A provide an illustration of such empirical determination: the effect of the length of the lipid tail, the end group, and the positioning of the silyl group. In this illustration, other properties of the lipid structure and liposome composition were kept constant. The liposome formulations just contained the cationic silyl lipids indicated, and Milli Q™ purified water.
(§3) FIGS. 7A to 7C and TABLE 1B provide another illustration of how structure of the silyl lipid can affect properties of nanoparticles.
(§4) Structural features such as tail length, positioning of the silicon group (n1, n2), and branching (as in 8,Si, (8)3-DOTMA) can influence liposome properties.

[2] = Average size of liposomes made from cationic silyl lipids (Tables 1A, 1B); assay type: physicochemical; conditions: for Avg. Size: Table 1A, liposome formulations of the cationic silyl lipid only in Milli Q purified water
Description: as §1, §2, §3, §4

[3] = Table 1A, liposome formulations of the cationic silyl lipid only in Milli Q purified water

| SMILES | Avg. zeta Potential ([1]; Table 1B, sila-DOTMA analog liposomes, two values given) [mV] | Avg size ([2]; Table 1B, sila-DOTMA analog liposomes) [nm] | Avg. zeta Potential [1, 3] | Avg. Size [2] [nm] |
| --- | --- | --- | --- | --- |
| CCCCCC[Si](C)(C)CCCCCCCCCCOCC(C[N+](C)(C)C)OCCCCCCCCCC[Si](C)(C)CCCCCC (stereo not drawn) [10, Si, 6-DOTMA] | 52 | 65 | – | – |
| CCCC[Si](C)(C)CCCCC(=O)OCC(C[N+](C)(C)C)OC(=O)CCCC[Si](C)(C)CCCC (stereo not drawn) [QP5Si4] | – | – | 65 mV | 21 |
| CCCCCCCC[Si](C)(C)CCCCC(=O)OCC(C[N+](C)(C)C)OC(=O)CCCC[Si](C)(C)CCCCCCCC (stereo not drawn) [QP5Si8] | – | – | 69 mV and 112 mV | 38 |
| CCCCCCCCCCC[Si](C)(C)CCCCC(=O)OCC(C[N+](C)(C)C)OC(=O)CCCC[Si](C)(C)CCCCCCCCCCC (stereo not drawn) [QP5Si11] | – | – | 60 mV | 59 |
| C[N+](C)(C)CC(COC(=O)CCCC[Si](C)(C)C1CCCCC1)OC(=O)CCCC[Si](C)(C)C1CCCCC1 (stereo not drawn) [QP5SiCy] | – | – | 71 mV and 124 mV | 80 |
| C[N+](C)(C)CC(COC(=O)CCCC[Si](C)(C)c1ccccc1)OC(=O)CCCC[Si](C)(C)c1ccccc1 (stereo not drawn) [QP5SiPh] | – | – | 62 mV | 80 |
| CCCCCCCCC[Si](C)(C)CCCCCCC(=O)OCC(C[N+](C)(C)C)OC(=O)CCCCCC[Si](C)(C)CCCCCCCCC (stereo not drawn) [QP7Si9] | – | – | 74 mV | 59 |

The next lines start with the values.

| Avg. zeta Potential ([1]; Table 1B, sila-DOTMA analog liposomes, two values given) [mV] | Avg size ([2]; Table 1B, sila-DOTMA analog liposomes) [nm] | Avg. zeta Potential [1, 3] | Avg. Size [2] [nm] | SMILES |
| --- | --- | --- | --- | --- |
| – | – | 33 mV and 44 mV | 24 | CCCC[Si](C)(C)CCCCCCCC(=O)OCC(C[N+](C)(C)C)OC(=O)CCCCCCC[Si](C)(C)CCCC (stereo not drawn) [QP8Si4] |
| – | – | 62 mV | 38 | CCCCCC[Si](C)(C)CCCCCCCC(=O)OCC(C[N+](C)(C)C)OC(=O)CCCCCCC[Si](C)(C)CCCCCC (stereo not drawn) [QP8Si6] |
| – | – | 67 mV | 38 | CCCCCCCC[Si](C)(C)CCCCCCCC(=O)OCC(C[N+](C)(C)C)OC(=O)CCCCCCC[Si](C)(C)CCCCCCCC (stereo not drawn) [QP8Si8] |
| – | – | 57 mV and 71 mV | 29 | C[N+](C)(C)CC(COC(=O)CCCCCCC[Si](C)(C)C1CCCCC1)OC(=O)CCCCCCC[Si](C)(C)C1CCCCC1 (stereo not drawn) [QP8SiCy] |
| – | – | 59 mV and 73 mV | 21 | C[N+](C)(C)CC(COC(=O)CCCCCCC[Si](C)(C)c1ccccc1)OC(=O)CCCCCCC[Si](C)(C)c1ccccc1 (stereo not drawn) [QP8SiPh] |
